# According to patent publication US10725049B2, “Methods of detecting and measuring glutamine and analogues thereof, and methods related thereto” (Victoria Link Limited, priority 2013, dated 2020):
# Legend:
# BpsA [1] = biological target: T1, BpsA (Streptomyces lavendulae, UniProt Q1MWN4); experiment: BpsA end-point assay measuring L-glutamine in complex biological media (indigoidine re-solubilised in DMSO, A590); details: for Spiked − unspiked (μM L-glutamine +/− 1 std dev): 300 μM spike
# Description: For improved accuracy, reproducibility, and robustness, it is generally preferable to use an end-point assay over a kinetic assay. An end-point assay for BpsA was designed and carried out as follows. In these experiments, 40 μL indigoidine-producing reactions were run until all glutamine present was consumed, and then all the indigoidine was solubilised by adding 190 μL of the organosulfur solvent dimethyl sulfoxide (DMSO).
# Indigoidine synthesis reactions were initiated by addition of 10 μL of each L-glutamine concentration standard in triplicate. […] The 96 plate was then mixed at 1000 rpm for 10 seconds and incubated at room temperature for 45 minutes to enable complete reaction of all L-glutamine present in each well. After this, 190 μL of DMSO heated to 50° C. was added to each well to solubilise the indigoidine. The 96 well plate was then incubated at room temperature with shaking at 2500 rpm for 10 minutes. […] This yielded a standard curve with an excellent straight line fit (FIG. 4).
# For these experiments, standard samples (10 μL per well) were prepared in triplicate in ddH2O as per Example 4 at the following concentrations: 1000 μM, 800 μM, 600 μM, 400 μM, 200 μM, and 0 μM. Alongside these were aliquoted paired triplicate samples (10 μL per well) of the following media: adult bovine serum (purchased from Sigma-Aldrich), human urine, LB, DMEM, and ddH2O. For each medium, one of the two paired triplicate sets was spiked (amended) with 300 μM L-glutamine, while the other was left unspiked. Indigoidine synthesis was initiated by addition of 30 μL reaction mix (as described in Table 4) to each sample-containing well. The 96 well plate was then mixed at 1000 rpm for 10 seconds and incubated at room temperature for one hour, after which 180 μL of DMSO heated to 50° C. was added to each well. The plate was then shaken at 2500 rpm for 10 minutes to fully solubilise the indigoidine.
# It was observed that the serum containing wells went immediately cloudy upon addition of DMSO, preventing meaningful A590 readings from being obtained for those samples. In all other cases, a single A590 reading for each well was recorded. For each sample, triplicate A590 values were averaged and this value was used to quantify glutamine levels based on the standard curve generated from the standard samples. With the exception of the ddH2O, it was unknown what the starting concentration of L-glutamine was in each medium being tested. However, the comparison of measured L-glutamine levels in spiked versus unspiked samples for each medium enabled assessment of the accuracy of the BpsA end-point assay in measuring L-glutamine concentrations in that medium.
# BpsA [2] = biological target: T1, BpsA; experiment: Relative reaction rate of L-glutamine versus analogue with BpsA; format: biochemical; details: L-glutamine faster than an analogue (e.g. L-glycyl glutamine)
# Description: Without wishing to be bound by theory, it is believed that BpsA or a related enzyme can be used to measure both L-glutamine and a glutamine analogue (e.g., L-glycyl glutamine) in the same sample. Experiments have shown that L-glutamine reacts much faster with BpsA (˜100-1000 fold) than an analogue. Thus, it would be possible to incubate the sample for a short period (e.g., 2 minutes), remove the blue pigment, and measure the pigment levels to calculate L-glutamine levels. It would then be possible to wait for a further longer period (e.g., 8 hours), and measure the remaining blue pigment to calculate analogue levels (e.g., L-glycyl glutamine). It is expected that there would be little contamination of the glutamine-based product by the analogue-based product based on the enzymatic profile for BpsA.
# T1 sequence (Q1MWN4 whole entry): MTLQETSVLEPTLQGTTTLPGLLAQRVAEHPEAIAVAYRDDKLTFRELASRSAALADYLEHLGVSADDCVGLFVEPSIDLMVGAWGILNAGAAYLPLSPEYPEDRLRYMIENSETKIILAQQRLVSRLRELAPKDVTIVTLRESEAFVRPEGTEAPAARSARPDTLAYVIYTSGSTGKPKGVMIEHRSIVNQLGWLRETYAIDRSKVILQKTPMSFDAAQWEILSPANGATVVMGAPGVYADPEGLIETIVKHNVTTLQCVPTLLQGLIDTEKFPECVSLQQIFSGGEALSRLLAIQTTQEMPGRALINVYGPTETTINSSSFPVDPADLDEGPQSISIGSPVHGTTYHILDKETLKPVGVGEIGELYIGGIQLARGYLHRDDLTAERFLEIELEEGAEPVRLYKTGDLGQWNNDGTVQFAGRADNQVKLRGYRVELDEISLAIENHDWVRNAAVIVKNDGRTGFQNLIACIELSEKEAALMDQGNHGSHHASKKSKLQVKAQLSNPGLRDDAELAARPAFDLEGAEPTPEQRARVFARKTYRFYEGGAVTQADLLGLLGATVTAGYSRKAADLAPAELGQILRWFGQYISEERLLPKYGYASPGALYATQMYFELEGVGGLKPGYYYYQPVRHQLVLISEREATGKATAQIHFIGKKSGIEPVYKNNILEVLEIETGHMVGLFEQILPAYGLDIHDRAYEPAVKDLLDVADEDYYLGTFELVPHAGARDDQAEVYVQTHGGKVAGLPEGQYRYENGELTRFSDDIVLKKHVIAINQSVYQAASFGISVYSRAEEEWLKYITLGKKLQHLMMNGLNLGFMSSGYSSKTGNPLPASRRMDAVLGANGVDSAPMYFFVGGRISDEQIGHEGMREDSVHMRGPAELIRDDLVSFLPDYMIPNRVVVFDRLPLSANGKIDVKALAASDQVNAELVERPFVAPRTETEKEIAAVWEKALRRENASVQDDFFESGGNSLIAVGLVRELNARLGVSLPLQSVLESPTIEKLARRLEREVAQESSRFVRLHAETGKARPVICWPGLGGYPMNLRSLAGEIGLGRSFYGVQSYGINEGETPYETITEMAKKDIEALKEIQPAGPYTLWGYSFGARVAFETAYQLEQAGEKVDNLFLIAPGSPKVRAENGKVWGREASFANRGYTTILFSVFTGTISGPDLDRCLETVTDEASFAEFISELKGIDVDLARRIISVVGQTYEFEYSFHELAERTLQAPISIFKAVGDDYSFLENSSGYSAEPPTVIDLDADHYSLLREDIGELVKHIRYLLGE
structure (smiles),measurement,setting,value
NC(=O)CC[C@H](N)C(=O)O [L-glutamine],Spiked sample measurement (μM L-glutamine +/− 1 std dev),"BpsA [1]; DMEM spiked with 300 μM L-glutamine, standard curve in ddH2O",427.4 ± 4.6 µM
same,Unspiked sample measurement (μM L-glutamine +/− 1 std dev),BpsA [1]; DMEM,20.3 ± 2.7 µM
same,Spiked − unspiked (μM L-glutamine +/− 1 std dev),BpsA [1]; DMEM,407.0 ± 5.4 µM
same,Spiked sample measurement (μM L-glutamine +/− 1 std dev),"BpsA [1]; LB spiked with 300 μM L-glutamine, standard curve in ddH2O",377.9 ± 14.1 µM
same,Unspiked sample measurement (μM L-glutamine +/− 1 std dev),BpsA [1]; LB,49.6 ± 5.3 µM
same,Spiked − unspiked (μM L-glutamine +/− 1 std dev),BpsA [1]; LB,328.1 ± 15.2 µM
same,Spiked sample measurement (μM L-glutamine +/− 1 std dev),BpsA [1]; ddH2O spiked with 300 μM L-glutamine,319.0 ± 5.4 µM
same,Spiked − unspiked (μM L-glutamine +/− 1 std dev),BpsA [1]; ddH2O,319.0 ± 5.4 µM
same,Spiked sample measurement (μM L-glutamine +/− 1 std dev),"BpsA [1]; human urine spiked with 300 μM L-glutamine, standard curve in ddH2O",295.8 ± 7.1 µM
same,Unspiked sample measurement (μM L-glutamine +/− 1 std dev),BpsA [1]; human urine,71.4 ± 23.6 µM
same,Spiked − unspiked (μM L-glutamine +/− 1 std dev),BpsA [1]; human urine,224.4 ± 24.9 µM
same,Reaction rate with BpsA relative to an analogue,BpsA [2],100-1000 fold
